# Earlier results as cited in patent US10350275B2, “Methods of cytotoxic gene therapy to treat tumors” (Advantagene, Inc., priority 2013, dated 2019).
# Test system: tumors
# Settings: monotherapy; Senzer et al 2009
substance,measurement,value
Anti-CTLA-4: Immune checkpoint inhibitor antibody; Ipilimumab (anti-CTLA-4) approved for metastatic melanoma,"complete and partial responses, share of subjects",about 10.9%
